From PubChem BioAssay (NCI)
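Test compounds were applied to cells in 96-well plates for 48 hours at 5 doses. TGI: total growth inhibition.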

Experiments:
Assay in all cases: growth of human tumour cells (NCI), 48 h
RXF 393 renal = system: RXF 393 renal
M14 melanoma = system: M14 melanoma
OVCAR-3 ovarian = system: OVCAR-3 ovarian
SW-620 colon = system: SW-620 colon
786-0 renal = system: 786-0 renal
HCC-2998 colon = system: HCC-2998 colon
OVCAR-8 ovarian = system: OVCAR-8 ovarian
UACC-257 melanoma = system: UACC-257 melanoma
SK-OV-3 ovarian = system: SK-OV-3 ovarian
UACC-62 melanoma = system: UACC-62 melanoma
MOLT-4 leukemia = system: MOLT-4 leukemia
SF-539 CNS = system: SF-539 CNS
CAKI-1 renal = system: CAKI-1 renal
SF-268 CNS = system: SF-268 CNS
MALME-3M melanoma = system: MALME-3M melanoma
IGROV1 ovarian = system: IGROV1 ovarian
HOP-62 NSCLC = system: HOP-62 NSCLC
RPMI-8226 leukemia = system: RPMI-8226 leukemia
SNB-75 CNS = system: SNB-75 CNS
BT-549 breast = system: BT-549 breast
SF-295 CNS = system: SF-295 CNS
SNB-19 CNS = system: SNB-19 CNS
ACHN renal = system: ACHN renal
HCT-116 colon = system: HCT-116 colon
KM12 colon = system: KM12 colon
MDA-MB-435 = system: MDA-MB-435
OVCAR-5 ovarian = system: OVCAR-5 ovarian
SN12C renal = system: SN12C renal
T-47D breast = system: T-47D breast
SR leukemia = system: SR leukemia
NCI-H460 lung = system: NCI-H460 lung
NCI-H522 lung = system: NCI-H522 lung
DU-145 prostate = system: DU-145 prostate
SK-MEL-28 melanoma = system: SK-MEL-28 melanoma
A498 renal = system: A498 renal
MDA-MB-231 breast = system: MDA-MB-231 breast
CCRF-CEM leukemia = system: CCRF-CEM leukemia
SK-MEL-5 melanoma = system: SK-MEL-5 melanoma
HT29 colon = system: HT29 colon
HCT-15 colon = system: HCT-15 colon
NCI/ADR-RES ovarian = system: NCI/ADR-RES ovarian
HOP-92 NSCLC = system: HOP-92 NSCLC
COLO 205 colon = system: COLO 205 colon
LOX IMVI melanoma = system: LOX IMVI melanoma
U251 CNS = system: U251 CNS
NCI-H226 lung = system: NCI-H226 lung
OVCAR-4 ovarian = system: OVCAR-4 ovarian
HL-60(TB) leukemia = system: HL-60(TB) leukemia
EKVX NSCLC = system: EKVX NSCLC
PC-3 prostate = system: PC-3 prostate
A549 NSCLC = system: A549 NSCLC
TK-10 renal = system: TK-10 renal
NCI-H23 lung = system: NCI-H23 lung
HS 578T breast = system: HS 578T breast
MCF7 breast = system: MCF7 breast
UO-31 renal = system: UO-31 renal
K-562 leukemia = system: K-562 leukemia
SK-MEL-2 melanoma = system: SK-MEL-2 melanoma

Measured: TGI

CCCCCCCC1(N=[N+]=[N-])C(=O)c2ccccc2N(C)C1=O (stereo not given)
99.1 µM: HL-60(TB) leukemia
89.6 µM: HOP-92 NSCLC
not listed: UO-31 renal | K-562 leukemia | SK-MEL-2 melanoma
> 100 µM: all other assays above

CC(=O)N1c2ccccc2C23CCN(C)CC4C(C)OCC(C4CC2=O)C13 (stereo not given)
not listed: OVCAR-3 ovarian | HOP-62 NSCLC | RPMI-8226 leukemia
> 100 µM: all other assays above
